The values that follow come from US20250320193A1, “OXOISOINDOLINYL SUBSTITUTED PIPERIDINEDIONE DERIVATIVE AND USE THEREOF” (GLUETACS THERAPEUTICS (SHANGHAI) CO., LTD., priority 2022, published 2025).

The structures appear in SMILES notation.

Chain of human Cereblon WT GST-tagged protein (Q96SW2 whole entry): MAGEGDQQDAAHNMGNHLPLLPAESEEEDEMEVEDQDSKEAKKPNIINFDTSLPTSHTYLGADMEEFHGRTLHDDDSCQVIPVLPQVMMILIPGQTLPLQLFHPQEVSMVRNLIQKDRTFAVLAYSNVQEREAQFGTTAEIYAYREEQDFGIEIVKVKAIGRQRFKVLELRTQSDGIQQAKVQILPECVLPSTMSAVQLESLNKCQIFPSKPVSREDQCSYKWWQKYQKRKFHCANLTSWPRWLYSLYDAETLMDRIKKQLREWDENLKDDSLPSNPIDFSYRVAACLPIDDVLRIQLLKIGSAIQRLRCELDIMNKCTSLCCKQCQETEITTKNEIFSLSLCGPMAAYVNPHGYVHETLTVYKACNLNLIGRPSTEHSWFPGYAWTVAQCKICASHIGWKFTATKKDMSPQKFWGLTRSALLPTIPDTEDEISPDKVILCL

This assay deals with human Cereblon WT GST-tagged protein (Homo sapiens (Human), UniProt Q96SW2). As to the kind of experiment: CRBN-binding affinity, HTRF (CEREBLON BINDING kit, CISBIO). The following applies: HTRF inhibitory activity. On the procedure:
I. Determination of CRBN-binding affinity of compounds of the present disclosure:
The CEREBLON BINDING kits (specification: 10,000 tests; product number: Catalog #64BDCRBNPEH; CISBIO company) was used to determine the CRBN binding ability of the compounds to be tested through a HTRF method (homogeneous time-resolved fluorescence). The specific methods are as follows: • 1. […] Then, 2.5 μL of human Cereblon WT GST-tagged protein solution was added to each well. Finally, 5 μL of the thoroughly mixed Thalidomide-Red reagent and GST Eu antibody working solution were added to each of the aforementioned wells. […] The blank control wells were sequentially added with 2.5 μL of diluent #9 (1X) solution, 2.5 μL of PROTAC binding buffer, and 5 μL of thoroughly mixed Thalidomide-Red reagent and GST Eu antibody working solution. • 4.
The corresponding CRBN binding inhibition rate was calculated using the following method: […]
OD 620 nmcompound is the absorbance value of each well of the compounds to be tested of the present disclosure at an emission wavelength of 620 nm. […] OD 620 nmcontrol is the absorbance value of the blank control well at an emission wavelength of 620 nm. […] OD 620 nmStd0 is the absorbance value of the solvent control well at an emission wavelength of 620 nm.
`O=C1CCC(N2Cc3cc(CN4CC5CCC(C4)N5C(c4ccccc4)c4ccccc4)cc(F)c3C2=O)C(=O)N1` (stereo not shown) [GT-05897, 3-(5-((8-benzhydryl-3,8-diazabicyclo[3.2.1]octan-3-yl)methyl)-7-fluoro-1-oxoisoindolin-2-yl)piperidine-2,6-dione] returned a 50% inhibitory concentration (IC50) of 500 to 1000 nM.
With `O=C1CCC(N2Cc3cc(CN4CC5(CCN(C(c6ccccc6)c6ccccc6)CC5)C4)ccc3C2=O)C(=O)N1` (stereo not shown) [GT-05901, 3-(5-((7-benzhydryl-2,7-diazaspiro[3.5]nonan-2-yl)methyl)-1-oxoisoindolin-2-yl)piperidine-2,6-dione] the figure was under 500 nM; with `O=C1CCC(N2Cc3c(ccc(CN4CC5(CCN(C(c6ccccc6)c6ccccc6)CC5)C4)c3F)C2=O)C(=O)N1` (stereo not shown) [GT-05902, 3-(5-((7-benzhydryl-2,7-diazaspiro[3.5]nonan-2-yl)methyl)-4-fluoro-1-oxoisoindolin-2-yl)piperidine-2,6-dione], 500 to 1000 nM.
For the compound `O=C1CCC(N2Cc3cc(CN4CC5(CCN(C(c6ccccc6)c6ccccc6)CC5)C4)c(F)cc3C2=O)C(=O)N1` (stereo not shown) [GT-05903, 3-(5-((7-benzhydryl-2,7-diazaspiro[3.5]nonan-2-yl)methyl)-6-fluoro-1-oxoisoindolin-2-yl)piperidine-2,6-dione], the 50% inhibitory concentration (IC50) fell in the range of 500 to 1000 nM.
With `O=C1CCC(N2Cc3cc(CN4CC5(CCN(C(c6ccccc6)c6ccccc6)CC5)C4)cc(F)c3C2=O)C(=O)N1` (stereo not shown) [GT-05904, 3-(5-((7-benzhydryl-2,7-diazaspiro[3.5]nonan-2-yl)methyl)-7-fluoro-1-oxoisoindolin-2-yl)piperidine-2,6-dione], the 50% inhibitory concentration (IC50) is 500 to 1000 nM.
With `O=C1CCC(N2Cc3cc(C(=O)N4C5CC4CN(C(c4ccccc4)c4ccccc4)C5)cc(F)c3C2=O)C(=O)N1` (stereo not shown) [GT-05916, 3-(5-(3-benzhydryl-3,6-diazabicyclo[3.1.1]heptane-6-carbonyl)-7-fluoro-1-oxoisoindolin-2-yl)piperidine-2,6-dione] the figure was under 500 nM; with `O=C1CCC(N2C(=O)c3ccc(C(=O)N4C5CC4CN(C(c4ccccc4)c4ccccc4)C5)cc3C2=O)C(=O)N1` (stereo not shown) [GT-05918, 5-(3-benzhydryl-3,6-diazabicyclo[3.1.1]heptane-6-carbonyl)-2-(2,6-dioxopiperidin-3-yl) isoindoline-1,3-dione], 1000 to 1900 nM; with `CC1CN(C(c2ccccc2)c2ccccc2)CC(C)N1C(=O)c1cc(F)c2c(c1)CN(C1CCC(=O)NC1=O)C2=O` (stereo not shown) [GT-05921, 3-(5-(4-benzhydryl-2,6-dimethylpiperazine-1-carbonyl)-7-fluoro-1-oxoisoindolin-2-yl)piperidine-2,6-dione], 500 to 1000 nM.
Compound `O=C1CCC(N2C(=O)c3cc(F)c(N4CC5CCC4CN5C(c4ccccc4)c4ccccc4)cc3C2=O)C(=O)N1` (stereo not shown) [GT-05936, 5-(5-benzhydryl-2,5-diazabicyclo[2.2.2]octan-2-yl)-2-(2,6-dioxopiperidin-3-yl)-6-fluoroisoindoline-1,3-dione] displayed a half-maximal inhibitory concentration (IC50) of 500 to 1000 nM.
With `O=C1CCC(N2Cc3cc(CN4C[C@H]5C[C@@H]4CN5C(c4ccccc4)c4ccccc4)c(F)cc3C2=O)C(=O)N1` (stereo partly drawn) [GT-05958, 3-(5-(((1R,4R)-5-benzhydryl-2,5-diazabicyclo[2.2.1]heptan-2-yl)methyl)-6-fluoro-1-oxoisoindolin-2-yl)piperidine-2,6-dione] the figure was 500 to 1000 nM; with `O=C1CCC(N2Cc3cc(CN4CC5CCC4CN5C(c4ccccc4)c4ccccc4)cc(F)c3C2=O)C(=O)N1` (stereo not shown) [GT-05964, 3-(5-((5-benzhydryl-2,5-diazabicyclo[2.2.2]octan-2-yl)methyl)-7-fluoro-1-oxoisoindolin-2-yl)piperidine-2,6-dione], 500 to 1000 nM; with `O=C1CCC(N2Cc3cc(CN4CCC5(CCN(C(c6ccccc6)c6ccccc6)CC5)C4)ccc3C2=O)C(=O)N1` (stereo not shown) [GT-05969, 3-(5-((8-benzhydryl-2,8-diazaspiro[4.5]decan-2-yl)methyl)-1-oxoisoindolin-2-yl)piperidine-2,6-dione], 1000 to 1900 nM.
With `O=C1CCC(N2Cc3cc(CN4CCC5(CCN(C(c6ccccc6)c6ccccc6)CC5)C4)cc(F)c3C2=O)C(=O)N1` (stereo not shown) [GT-05972, 3-(5-((8-benzhydryl-2,8-diazaspiro[4.5]decan-2-yl)methyl)-7-fluoro-1-oxoisoindolin-2-yl)piperidine-2,6-dione] the figure was 1000 to 1900 nM; with `O=C1CCC(N2Cc3cc(C(=O)N4C[C@@H]5C[C@H]4CN5C(c4ccccc4)c4ccccc4)ccc3C2=O)C(=O)N1` (stereo partly drawn) [GT-05977, 3-(5-((1S,4S)-5-benzhydryl-2,5-diazabicyclo[2.2.1]heptane-2-carbonyl)-1-oxoisoindolin-2-yl)piperidine-2,6-dione], 500 to 1000 nM; with `O=C1CCC(N2Cc3cc(C(=O)N4C[C@@H]5C[C@H]4CN5C(c4ccccc4)c4ccccc4)cc(F)c3C2=O)C(=O)N1` (stereo partly drawn) [GT-05978, 3-(5-((1S,4S)-5-benzhydryl-2,5-diazabicyclo[2.2.1]heptane-2-carbonyl)-7-fluoro-1-oxoisoindolin-2-yl)piperidine-2,6-dione], 1000 to 1900 nM.
The compound `O=C1CCC(N2Cc3cc(C(=O)N4CC5CCC(C4)N5C(c4ccccc4)c4ccccc4)cc(F)c3C2=O)C(=O)N1` (stereo not shown) [GT-05981, 3-(5-(8-benzhydryl-3,8-diazabicyclo[3.2.1]octane-3-carbonyl)-7-fluoro-1-oxoisoindolin-2-yl)piperidine-2,6-dione] came in with a half-maximal inhibitory concentration (IC50) of 500 to 1000 nM.
The compound `O=C1CCC(N2Cc3cc(C(=O)N4C5CCC4CN(C(c4ccccc4)c4ccccc4)C5)ccc3C2=O)C(=O)N1` (stereo not shown) [GT-05983, 3-(5-(3-benzhydryl-3,8-diazabicyclo[3.2.1]octane-8-carbonyl)-1-oxoisoindolin-2-yl)piperidine-2,6-dione] displayed a 50% inhibitory concentration (IC50) of 500 to 1000 nM.
With `O=C1CCC(N2Cc3c(C(=O)N4CCN(C(c5ccc(Cl)cc5)c5ccc(Cl)cc5)CC4)cccc3C2=O)C(=O)N1` (stereo not shown) [GT-05985, 3-(4-(4-(bis(4-chlorophenyl)methyl)piperazine-1-carbonyl)-1-oxoisoindolin-2-yl)piperidine-2,6-dione] the figure was 500 to 1000 nM; with `O=C1CCC(N2Cc3cc(C(=O)N4C[C@H]5C[C@@H]4CN5C(c4ccccc4)c4ccccc4)ccc3C2=O)C(=O)N1` (stereo partly drawn) [GT-05990, 3-(5-((1R,4R)-5-benzhydryl-2,5-diazabicyclo[2.2.1]heptane-2-carbonyl)-1-oxoisoindolin-2-yl)piperidine-2,6-dione], under 500 nM; with `O=C1CCC(N2Cc3cc(C(=O)N4C[C@H]5C[C@@H]4CN5C(c4ccccc4)c4ccccc4)cc(F)c3C2=O)C(=O)N1` (stereo partly drawn) [GT-05991, 3-(5-((1R,4R)-5-benzhydryl-2,5-diazabicyclo[2.2.1]heptane-2-carbonyl)-7-fluoro-1-oxoisoindolin-2-yl)piperidine-2,6-dione], under 500 nM.
The compound `O=C1CCC(N2Cc3cc(CN4CCC5(CC4)CCN(C(c4ccccc4)c4ccccc4)CC5)ccc3C2=O)C(=O)N1` (stereo not shown) [GT-06002, 3-(5-((9-benzhydryl-3,9-diazaspiro[5.5]undecan-3-yl)methyl)-1-oxoisoindolin-2-yl)piperidine-2,6-dione] returned an IC50 of 500 to 1000 nM.
As to `O=C1CCC(N2Cc3c(ccc(CN4CCC5(CC4)CCN(C(c4ccccc4)c4ccccc4)CC5)c3F)C2=O)C(=O)N1` (stereo not shown) [GT-06024, 3-(5-((9-benzhydryl-3,9-diazaspiro[5.5]undecan-3-yl)methyl)-4-fluoro-1-oxoisoindolin-2-yl)piperidine-2,6-dione], the half-inhibitory concentration (IC50) lay within 500 to 1000 nM.
With `O=C1CCC(N2Cc3cc(CN4CCC5(CC4)CCN(C(c4ccccc4)c4ccccc4)CC5)c(F)cc3C2=O)C(=O)N1` (stereo not shown) [GT-06025, 3-(5-((9-benzhydryl-3,9-diazaspiro[5.5]undecan-3-yl)methyl)-6-fluoro-1-oxoisoindolin-2-yl)piperidine-2,6-dione] the figure was 500 to 1000 nM; with `O=C1CCC(N2Cc3cc(CN4CCC5(CC4)CCN(C(c4ccccc4)c4ccccc4)CC5)cc(F)c3C2=O)C(=O)N1` (stereo not shown) [GT-06026, 3-(5-((9-benzhydryl-3,9-diazaspiro[5.5]undecan-3-yl)methyl)-7-fluoro-1-oxoisoindolin-2-yl)piperidine-2,6-dione], 500 to 1000 nM.
With `O=C1CCC(N2Cc3cc(C(=O)N4C5CCC4CN(C(c4ccccc4)c4ccccc4)C5)cc(F)c3C2=O)C(=O)N1` (stereo not shown) [GT-06055, 3-(5-(3-benzhydryl-3,8-diazabicyclo[3.2.1]octane-8-carbonyl)-7-fluoro-1-oxoisoindolin-2-yl)piperidine-2,6-dione] the figure was under 500 nM; with `O=C1CCC(N2Cc3cc(C(=O)N4CC5CCC4CN5C(c4ccccc4)c4ccccc4)ccc3C2=O)C(=O)N1` (stereo not shown) [GT-06056, 3-(5-(5-benzhydryl-2,5-diazabicyclo[2.2.2]octane-2-carbonyl)-1-oxoisoindolin-2-yl)piperidine-2,6-dione], under 500 nM.
For the compound `O=C1CCC(N2Cc3cc(C(=O)N4CC5CCC4CN5C(c4ccccc4)c4ccccc4)cc(F)c3C2=O)C(=O)N1` (stereo not shown) [GT-06057, 3-(5-(5-benzhydryl-2,5-diazabicyclo[2.2.2]octane-2-carbonyl)-7-fluoro-1-oxoisoindolin-2-yl)piperidine-2,6-dione], the IC50 was under 500 nM.
With `CC1CN(C(=O)c2ccc3c(c2)CN(C2CCC(=O)NC2=O)C3=O)CC(C)N1C(c1ccccc1)c1ccccc1` (stereo not shown) [GT-06059, 3-(5-(4-benzhydryl-3,5-dimethylpiperazine-1-carbonyl)-1-oxoisoindolin-2-yl)piperidine-2,6-dione] the figure was under 500 nM.
